Converted amounts (≈) assume the structure as drawn. Where a name gives a salt, the structure may show the parent alone.
Tests used:
[1] = Solubility in a mixture of water-ethanol (1:1) at 25° C. (Table 1); assay type: physicochemical
[2] = Solubility for injectable solvents / the solvent for the administration (stated in words); assay type: physicochemical; details: for solubility for the solvent for the administration: compared with the mixture of salts of the formula (B) and calcium salt
[3] = Pharmacological activity (lipid A-like activity; stated in words, no test described); details: sufficiency for use as a pharmaceutical agent

Row | Compound | Solubility [1] [mg/mL] | solubility for the solvent for the administration [2] | solubility for injectable solvents ([2]; injectable solvents) | pharmacological activity [3]
1 | CCCCCCCCCCC[C@@H](CC(=O)N[C@H]1C(O)O[C@H](CO)[C@@H](OS(=O)(=O)O)[C@@H]1OC(=O)CCCCCCCCc1ccccc1)OC(=O)CCCCCCCCc1ccccc1 (mixture of isomers) [Reference example 5, mixture salt of calcium, sodium and magnesium of 2-deoxy-2-[(3S)-(9-phenylnonanoyloxy)tetradecanoyl]amino-3-O-(9-phenylnonanoyl)-4-O-sulfo-D-glucopyranose, reference compound] | 1.5 |  |  | 
2 | CCCCCCCCCCC[C@@H](CC(=O)N[C@H]1C(O)O[C@H](CO)[C@@H](OS(=O)(=O)O)[C@@H]1OC(=O)CCCCCCCCc1ccccc1)OC(=O)CCCCCCCCc1ccccc1 (single isomer, unassigned) [Example 3] | 212 (≈ 231 mM) | very good solubility |  | 
3 | CCCCCCCCCCC[C@@H](CC(=O)N[C@H]1C(O)O[C@H](CO)[C@@H](OS(=O)(=O)O)[C@@H]1OC(=O)CCCCCCCCc1ccccc1)OC(=O)CCCCCCCCc1ccccc1 (single isomer, unassigned) [Example 4] | > 270 | very good solubility |  | 
4 | CCCCCCCCCCC[C@@H](CC(=O)N[C@H]1C(O)O[C@H](CO)[C@@H](OS(=O)(=O)O)[C@@H]1OC(=O)CCCCCCCCc1ccccc1)OC(=O)CCCCCCCCc1ccccc1 (stereo partly drawn) [formula (Aa), 2-Deoxy-2-[(3S)-(9-phenylnonanoyloxy)tetradecanoyl]amino-3-O-(9-phenylnonanoyl)-4-O-sulfo-D-glucopyranose, reference compound] |  |  | very poor | sufficient pharmacological activity
